{"source": "ChEMBL document CHEMBL5678818", "about": "“Discovery of potent SOS1 inhibitors that block RAS activation via disruption of the RAS-SOS1 interaction” (Proc Natl Acad Sci U S A, 2019)", "key": {"Homo sapiens": {"species": "Homo sapiens", "assay": "Inhibition of N-terminal GST-tagged recombinant human SOS1 H905M mutant (564 to 1049 residues) expressed in Escherichia coli assessed as reduction in KRAS G12C mutant activation at 10 uM by HTRF analysis relative to control"}, "[1]": {"target": "Cyclin-dependent kinase-like 3 (Homo sapiens) (UniProt Q8IVW4)", "sequence (Q8IVW4 whole entry, looked up)": "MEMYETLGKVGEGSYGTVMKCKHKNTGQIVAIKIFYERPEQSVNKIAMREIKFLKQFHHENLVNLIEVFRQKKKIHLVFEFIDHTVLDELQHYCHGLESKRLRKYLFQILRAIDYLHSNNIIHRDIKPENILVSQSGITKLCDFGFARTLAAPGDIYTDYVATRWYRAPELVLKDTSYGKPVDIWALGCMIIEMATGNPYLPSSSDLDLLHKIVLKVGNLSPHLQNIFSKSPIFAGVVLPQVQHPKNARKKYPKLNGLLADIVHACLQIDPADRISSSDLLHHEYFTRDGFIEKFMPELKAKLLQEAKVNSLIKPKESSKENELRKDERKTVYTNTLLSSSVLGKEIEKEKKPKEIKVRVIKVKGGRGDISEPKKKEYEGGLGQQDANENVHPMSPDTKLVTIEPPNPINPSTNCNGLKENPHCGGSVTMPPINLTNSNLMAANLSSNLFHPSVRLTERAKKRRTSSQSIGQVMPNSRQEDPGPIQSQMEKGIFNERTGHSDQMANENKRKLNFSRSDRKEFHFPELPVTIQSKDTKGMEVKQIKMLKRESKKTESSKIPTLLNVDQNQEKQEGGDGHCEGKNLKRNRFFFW", "assay": "Inhibition of CDKL3 (unknown origin) assessed as residual activity at 100 nM by KINOMEscan analysis relative to control"}, "[2]": {"target": "T1, Tyrosine-protein kinase JAK3 (Homo sapiens) (UniProt P52333)", "T1 sequence (whole entry)": "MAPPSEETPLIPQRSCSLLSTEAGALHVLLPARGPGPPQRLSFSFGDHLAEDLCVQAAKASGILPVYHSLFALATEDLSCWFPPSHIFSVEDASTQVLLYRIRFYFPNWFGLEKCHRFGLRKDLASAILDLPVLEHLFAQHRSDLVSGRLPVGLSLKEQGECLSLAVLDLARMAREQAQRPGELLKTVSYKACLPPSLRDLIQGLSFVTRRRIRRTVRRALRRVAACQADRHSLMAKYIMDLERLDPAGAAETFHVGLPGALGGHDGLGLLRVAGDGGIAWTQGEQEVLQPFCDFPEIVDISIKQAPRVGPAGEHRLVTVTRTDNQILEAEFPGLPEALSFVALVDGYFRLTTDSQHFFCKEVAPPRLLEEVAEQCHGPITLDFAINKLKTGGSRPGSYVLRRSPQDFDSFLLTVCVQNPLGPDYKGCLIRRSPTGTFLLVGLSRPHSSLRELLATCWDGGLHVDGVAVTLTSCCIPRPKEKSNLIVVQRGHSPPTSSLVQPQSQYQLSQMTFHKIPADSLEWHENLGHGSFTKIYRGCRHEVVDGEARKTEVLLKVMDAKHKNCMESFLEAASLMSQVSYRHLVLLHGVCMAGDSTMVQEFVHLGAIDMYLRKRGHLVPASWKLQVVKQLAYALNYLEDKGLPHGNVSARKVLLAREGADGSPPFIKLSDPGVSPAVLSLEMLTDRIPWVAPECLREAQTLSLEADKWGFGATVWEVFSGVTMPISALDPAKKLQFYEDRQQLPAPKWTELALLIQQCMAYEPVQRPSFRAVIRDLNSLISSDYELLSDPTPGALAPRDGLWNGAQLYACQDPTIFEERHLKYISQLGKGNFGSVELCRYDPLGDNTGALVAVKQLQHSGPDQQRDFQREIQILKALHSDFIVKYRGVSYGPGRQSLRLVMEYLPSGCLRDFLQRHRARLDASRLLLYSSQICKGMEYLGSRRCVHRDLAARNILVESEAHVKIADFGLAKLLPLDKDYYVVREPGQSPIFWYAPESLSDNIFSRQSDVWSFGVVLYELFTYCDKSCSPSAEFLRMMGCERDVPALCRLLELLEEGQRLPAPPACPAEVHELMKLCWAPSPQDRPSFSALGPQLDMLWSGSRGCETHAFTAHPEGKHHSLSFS", "assay": "Inhibition of JAK3 JH1 catalytic domain (unknown origin) assessed as residual activity at 100 nM by KINOMEscan analysis relative to control"}, "[3]": {"target": "RAF proto-oncogene serine/threonine-protein kinase (Homo sapiens) (UniProt P04049)", "sequence (P04049 whole entry)": "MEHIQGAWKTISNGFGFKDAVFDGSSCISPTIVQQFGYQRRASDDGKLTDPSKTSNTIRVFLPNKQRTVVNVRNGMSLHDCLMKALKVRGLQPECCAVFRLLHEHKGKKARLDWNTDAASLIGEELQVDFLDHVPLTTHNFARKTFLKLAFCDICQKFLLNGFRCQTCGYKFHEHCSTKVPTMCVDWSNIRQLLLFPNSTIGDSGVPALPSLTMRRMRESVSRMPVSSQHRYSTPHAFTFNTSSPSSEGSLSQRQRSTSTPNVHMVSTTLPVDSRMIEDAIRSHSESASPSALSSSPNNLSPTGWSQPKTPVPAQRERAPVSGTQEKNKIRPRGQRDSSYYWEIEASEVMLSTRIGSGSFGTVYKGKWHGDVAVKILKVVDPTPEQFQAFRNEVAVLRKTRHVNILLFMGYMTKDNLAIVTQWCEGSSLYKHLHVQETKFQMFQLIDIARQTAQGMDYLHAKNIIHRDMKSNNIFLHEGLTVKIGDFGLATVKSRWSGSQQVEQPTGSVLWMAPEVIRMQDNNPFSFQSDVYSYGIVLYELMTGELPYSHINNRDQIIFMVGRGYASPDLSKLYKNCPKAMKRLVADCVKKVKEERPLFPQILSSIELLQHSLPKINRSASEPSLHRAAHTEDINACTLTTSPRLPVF", "assay": "Inhibition of RAF1 (unknown origin) assessed as residual activity at 100 nM by KINOMEscan analysis relative to control"}, "[4]": {"target": "T2, Tyrosine-protein kinase TXK (Homo sapiens) (UniProt P42681)", "T2 sequence (whole entry)": "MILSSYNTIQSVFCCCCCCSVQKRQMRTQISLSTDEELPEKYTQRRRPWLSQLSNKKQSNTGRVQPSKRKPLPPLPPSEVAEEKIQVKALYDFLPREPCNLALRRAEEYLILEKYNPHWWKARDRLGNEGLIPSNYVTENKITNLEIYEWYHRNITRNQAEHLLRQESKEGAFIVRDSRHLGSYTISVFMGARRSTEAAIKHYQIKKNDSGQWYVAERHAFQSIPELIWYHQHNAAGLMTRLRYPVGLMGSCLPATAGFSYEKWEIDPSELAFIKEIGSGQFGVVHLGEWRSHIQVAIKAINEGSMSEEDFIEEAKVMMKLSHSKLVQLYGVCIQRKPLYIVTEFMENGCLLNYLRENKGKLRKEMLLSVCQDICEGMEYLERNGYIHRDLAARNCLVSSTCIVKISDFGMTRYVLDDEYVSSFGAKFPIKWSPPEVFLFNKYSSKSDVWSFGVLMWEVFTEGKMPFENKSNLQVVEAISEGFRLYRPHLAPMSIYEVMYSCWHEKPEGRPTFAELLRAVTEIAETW", "assay": "Inhibition of TXK (unknown origin) assessed as residual activity at 100 nM by KINOMEscan analysis relative to control"}, "[5]": {"target": "T3, Serine/threonine-protein kinase ULK2 (Homo sapiens) (UniProt Q8IYT8)", "T3 sequence (whole entry)": "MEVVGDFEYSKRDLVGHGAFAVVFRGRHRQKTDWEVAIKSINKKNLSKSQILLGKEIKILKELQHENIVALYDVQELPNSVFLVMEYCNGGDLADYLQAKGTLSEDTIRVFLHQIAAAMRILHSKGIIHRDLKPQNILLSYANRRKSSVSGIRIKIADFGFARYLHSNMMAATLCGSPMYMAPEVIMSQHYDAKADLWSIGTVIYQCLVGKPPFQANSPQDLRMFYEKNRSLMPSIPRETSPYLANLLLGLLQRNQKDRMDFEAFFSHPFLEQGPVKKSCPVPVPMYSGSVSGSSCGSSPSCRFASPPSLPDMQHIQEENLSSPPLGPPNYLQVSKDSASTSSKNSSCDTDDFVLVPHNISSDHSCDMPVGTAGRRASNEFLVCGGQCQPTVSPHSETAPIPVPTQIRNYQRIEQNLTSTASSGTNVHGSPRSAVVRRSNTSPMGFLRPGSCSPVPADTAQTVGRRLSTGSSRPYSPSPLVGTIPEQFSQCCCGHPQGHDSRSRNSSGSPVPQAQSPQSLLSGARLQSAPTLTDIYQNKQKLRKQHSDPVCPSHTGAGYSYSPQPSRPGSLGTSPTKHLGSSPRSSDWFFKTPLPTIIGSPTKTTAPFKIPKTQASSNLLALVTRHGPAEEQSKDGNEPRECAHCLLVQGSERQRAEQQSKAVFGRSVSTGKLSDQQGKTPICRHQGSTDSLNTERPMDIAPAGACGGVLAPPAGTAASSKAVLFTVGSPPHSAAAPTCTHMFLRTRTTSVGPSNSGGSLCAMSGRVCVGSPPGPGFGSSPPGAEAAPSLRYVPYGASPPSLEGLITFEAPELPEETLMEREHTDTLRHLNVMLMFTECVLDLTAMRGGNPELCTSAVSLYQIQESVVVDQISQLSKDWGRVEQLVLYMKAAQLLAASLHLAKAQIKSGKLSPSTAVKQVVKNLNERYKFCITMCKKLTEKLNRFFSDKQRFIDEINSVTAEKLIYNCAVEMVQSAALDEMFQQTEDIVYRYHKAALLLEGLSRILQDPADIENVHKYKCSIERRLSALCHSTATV", "assay": "Inhibition of ULK2 (unknown origin) assessed as residual activity at 100 nM by KINOMEscan analysis relative to control"}}, "data": [{"smiles": "COc1cc2ncnc(N[C@H](C)c3cccc4ccccc34)c2cc1OC", "values": [{"measurement": "inhibition", "setting": "Homo sapiens", "value": 39, "unit": "%"}, {"measurement": "Activity", "setting": "[1]", "value": 100, "unit": "%"}, {"measurement": "Activity", "setting": "[2]", "value": 84, "unit": "%"}, {"measurement": "Activity", "setting": "[3]", "value": 85, "unit": "%"}, {"measurement": "Activity", "setting": "[4]", "value": 67, "unit": "%"}, {"measurement": "Activity", "setting": "[5]", "value": 100, "unit": "%"}]}]}
